Measurements: US20230083012A1, “DIHYDROPYRIMIDINE DERIVATIVES AND USES THEREOF IN THE TREATMENT OF HBV INFECTION OR OF HBV-INDUCED DISEASES” (priority 2019, published 2023)

Key:
[1] = test system: HBV; assay: Anti-HBV activity in HepG2.2.15 cells (HBV DNA in culture medium by qPCR); assay type: cell-based; conditions: Hepatitis B virus, HepG2.2.15, 144 h, HepG2.2.15 cells, 6 days treatment, HBV DNA in culture medium quantified by real-time PCR; read-out: EC50
In short: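 HepG2.2.15 cells in 2% FBS medium at 37 °C were treated with compounds for 6 days, with medium and compound refreshed at day 3; 1:3 dilutions, 8 concentrations in triplicate, top 10 or 1 uM. HBV DNA in culture medium quantified by qPCR to derive EC50; CC50 from parallel plates (top 100 uM).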

[2] = Cytotoxicity determination in HepG2.2.15 cells (CCK-8 cell viability); assay type: cell-based; conditions: human, 6 days treatment, CCK-8 assay, highest concentration 100 uM
In short: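 HepG2.2.15 cells seeded at 5,000 cells/well in 2% FBS medium, exposed 6 days to compounds (8-point 1:3 dilutions from 100 uM, triplicate), refreshed at day 3. Viability read by CCK-8 after 2.5 h at 37° C, absorbance 450 nm with 630 nm reference; CC50 calculated.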

Structure (SMILES)	EC50 [1]	CC50 at 6 days [2]
CCOC(=O)C1=C(CN2CC(F)(F)[C@@H]3CN(C[C@@H](CC)C(=O)O)C(=O)C32)NC(c2nccs2)=N[C@H]1c1cccc(F)c1C (single isomer, unassigned) [Compound 183A]	14.3 nM	40300 nM
CCOC(=O)C1=C(CN2CC(F)(F)[C@@H]3CN(C[C@H](CC)C(=O)O)C(=O)[C@@H]32)NC(c2nccs2)=N[C@H]1c1cccc(F)c1C (single isomer, unassigned) [Compound 183B]	6.4 nM	50200 nM
CCOC(=O)C1=C(CN2CC(F)(F)[C@@H]3C(=O)N(CC4(C(=O)O)CC4)C[C@@H]32)NC(c2nccs2)=N[C@H]1c1cccc(F)c1C (single isomer, unassigned) [Compound 184]	6.7 nM	48300 nM
CCOC(=O)C1=C(CN2CC(F)(F)[C@@H]3CN([C@H]4CC[C@@H](C(=O)O)CC4)C(=O)[C@@H]32)NC(c2nccs2)=N[C@H]1c1cccc(F)c1C (single isomer, unassigned) [Compound 185A]	5.4 nM	48300 nM
CCOC(=O)C1=C(CN2CC(F)(F)[C@@H]3CN([C@H]4CC[C@H](C(=O)O)CC4)C(=O)[C@@H]32)NC(c2nccs2)=N[C@H]1c1cccc(F)c1C (single isomer, unassigned) [Compound 185B]	8.3 nM	27600 nM
CCOC(=O)C1=C(CN2CC(F)(F)[C@@H]3C(=O)N(c4ccn(CCC(C)(C)C(=O)O)n4)C[C@@H]32)NC(c2nccs2)=N[C@H]1c1cccc(F)c1C (single isomer, unassigned) [Compound 187]	81.7 nM	33600 nM
CCOC(=O)C1=C(CN2CC(F)(F)[C@@H]3C(=O)N(C(=O)NCC(C)(C)C(=O)O)C[C@@H]32)NC(c2nccs2)=N[C@H]1c1cccc(F)c1C (single isomer, unassigned) [Compound 188]	62.4 nM	32100 nM
CCOC(=O)C1=C(CN2CC(F)(F)[C@@H]3CN(C(=O)NCC(C)(C)C(=O)O)C(=O)[C@@H]32)NC(c2nccs2)=N[C@H]1c1cccc(F)c1C (single isomer, unassigned) [Compound 189]	18.1 nM	28200 nM
CCOC(=O)C1=C(CN2CC(F)(F)C3C(=O)N(C(=O)CC(C)(C)C(=O)O)C[C@@H]32)NC(c2nccs2)=N[C@H]1c1cccc(F)c1C (single isomer, unassigned) [Compound 190]	4.3 nM	28700 nM
CCOC(=O)C1=C(CN2CC(F)(F)[C@@H]3CN(C(=O)CC(C)(C)C(=O)O)C(=O)[C@@H]32)NC(c2nccs2)=N[C@H]1c1cccc(F)c1C (single isomer, unassigned) [Compound 191]	13.5 nM	35900 nM
CCOC(=O)C1=C(CN2CC(F)(F)[C@@H]3CN([C@H]4C[C@@H](C(=O)O)C4)C(=O)[C@@H]32)NC(c2nccs2)=N[C@H]1c1cccc(F)c1C (single isomer, unassigned) [Compound 192]	16.6 nM	52900 nM
CCOC(=O)C1=C(CN2CC(F)(F)[C@@H]3C(=O)N(CCC(C)(C)C(=O)O)C[C@@H]32)NC(c2nccs2)=N[C@H]1c1cccc(F)c1C (single isomer, unassigned) [Compound 193]	12.1 nM	48200 nM
CCOC(=O)C1=C(CN2CC(F)(F)[C@@H]3CN(S(=O)(=O)[C@H]4C[C@H](C(=O)O)C4)C[C@@H]32)NC(c2nccs2)=N[C@H]1c1cccc(F)c1C (single isomer, unassigned) [Compound 194]	71.3 nM	36700 nM
CCOC(=O)C1=C(CN2CC(F)(F)[C@@H]3CN(C(C)(C)C(=O)O)C[C@@H]32)NC(c2nccs2)=N[C@H]1c1cccc(F)c1C (single isomer, unassigned) [Compound 195]	40.3 nM	96600 nM
CCOC(=O)C1=C(CN2CC(F)(F)[C@@H]3CN(C4(C(=O)O)CC4)C[C@@H]32)NC(c2nccs2)=N[C@H]1c1cccc(F)c1C (single isomer, unassigned) [Compound 196]	3.3 nM	12800 nM
CCOC(=O)C1=C(CN2CC(F)(F)[C@@H]3CN(C4(C(=O)O)CC4)C(=O)C32)NC(c2nccs2)=N[C@H]1c1cccc(F)c1C (single isomer, unassigned) [Compound 197]	14.2 nM	26000 nM

Structure (SMILES)	EC50 [1]	CC50 at 6 days [2]
CCOC(=O)C1=C(CN2CC(F)(F)[C@@H]3C(=O)N(C4(C(=O)O)CC4)C[C@@H]32)NC(c2nccs2)=N[C@H]1c1cccc(F)c1C (single isomer, unassigned) [Compound 198]	96 nM	99600 nM
CCOC(=O)C1=C(CN2CC(F)(F)[C@@H]3C(=O)N(CC4(C(=O)O)CCCC4)C[C@@H]32)NC(c2nccs2)=N[C@H]1c1cccc(F)c1C (single isomer, unassigned) [Compound 199]	11.8 nM	35900 nM
CCOC(=O)C1=C(CN2CC(F)(F)[C@@H]3C(=O)N(CC(C)(C)c4nn[nH]n4)C[C@@H]32)NC(c2nccs2)=N[C@H]1c1cccc(F)c1C (single isomer, unassigned) [Compound 200]	34.7 nM	91300 nM
CCOC(=O)C1=C(CN2CC(F)(F)[C@@H]3CN(CC(C)(C)C(=O)O)C[C@@H]32)NC(c2nccs2)=N[C@@H]1c1ccc(F)nc1C (single isomer, unassigned) [Compound 201, 3-((cis)-1-((5-(ethoxycarbonyl)-6-(6-fluoro-2-methylpyridin-3-yl)-2-(thiazol-2-yl)-3,6-dihydropyrimidin-4-yl)methyl)-3,3-difluorohexahydropyrrolo[3,4-b]pyrrol-5(1H)-yl)-2,2-dimethylpropanoic acid]	72.6 nM	> 100000 nM
CCOC(=O)C1=C(CN2CC(F)(F)[C@@H]3C(=O)N(CC(CC)(CC)C(=O)O)C[C@@H]32)NC(c2nccs2)=N[C@H]1c1cccc(F)c1C (single isomer, unassigned) [Compound 202]	23 nM	100000 nM
CCOC(=O)C1=C(CN2C[C@@H](F)[C@@]3(F)CN(CC(C)(C)C(=O)O)C(=O)[C@@H]23)NC(c2nccs2)=N[C@H]1c1cccc(F)c1C (single isomer, unassigned) [Compound 203A]	16.7 nM	44600 nM
CCOC(=O)C1=C(CN2C[C@@H](F)[C@@]3(F)C(=O)N(CC(C)(C)C(=O)O)C[C@@H]23)NC(c2nccs2)=N[C@H]1c1cccc(F)c1C (single isomer, unassigned) [Compound 204A]	11.2 nM	88900 nM
CCOC(=O)C1=C(CN2C[C@H](F)[C@]3(F)C(=O)N(CC(C)(C)C(=O)O)C[C@H]23)NC(c2nccs2)=N[C@H]1c1cccc(F)c1C (single isomer, unassigned) [Compound 204B]	102 nM	72100 nM
CCOC(=O)C1=C(CN2C[C@H](F)[C@@]3(F)C(=O)N(CC(C)(C)C(=O)O)C[C@@H]23)NC(c2nccs2)=N[C@H]1c1cccc(F)c1C (single isomer, unassigned) [Compound 204C]	7.1 nM	36900 nM
CCOC(=O)C1=C(CN2C[C@@H](F)[C@]3(F)C(=O)N(CC(C)(C)C(=O)O)C[C@H]23)NC(c2nccs2)=N[C@H]1c1cccc(F)c1C (single isomer, unassigned) [Compound 204D]	0.4 nM	48100 nM
CCOC(=O)C1=C(CN2CC(F)(F)[C@@H]3CN(S(=O)(=O)[C@H]4C[C@](C)(C(=O)O)C4)C[C@@H]32)NC(c2nccs2)=N[C@H]1c1cccc(F)c1C (single isomer, unassigned) [Compound 205A]	114 nM	> 50000 nM
CCOC(=O)C1=C(CN2CC(F)(F)[C@@H]3CN(S(=O)(=O)[C@H]4C[C@@](C)(C(=O)O)C4)C[C@@H]32)NC(c2nccs2)=N[C@H]1c1cccc(F)c1C (single isomer, unassigned) [Compound 205B]	103 nM	> 50000 nM
COC(=O)C1=C(CN2CC(F)(F)[C@@H]3CN(C(=O)C(C)(C)C(=O)O)C[C@@H]32)NC(c2nccs2)=N[C@H]1c1cccc(F)c1Cl (single isomer, unassigned) [Compound 206, 3-((cis)-1-((6-(2-chloro-3-fluorophenyl)-5-(methoxycarbonyl)-2-(thiazol-2-yl)-3,6-dihydropyrimidin-4-yl)methyl)-3,3-difluorohexahydropyrrolo[3,4-b]pyrrol-5(1H)-yl)-2,2-dimethyl-3-oxopropanoic acid]	39.3 nM	> 100000 nM
CCOC(=O)C1=C(CN2CC(F)(F)[C@@H]3CN(C(=O)C(C)(C)C(=O)O)C[C@@H]32)NC(c2nccs2)=N[C@H]1c1cccc(F)c1Cl (single isomer, unassigned) [Compound 207, 3-((cis)-1-((6-(2-chloro-3-fluorophenyl)-5-(ethoxycarbonyl)-2-(thiazol-2-yl)-3,6-dihydropyrimidin-4-yl)methyl)-3,3-difluorohexahydropyrrolo[3,4-b]pyrrol-5(1H)-yl)-2,2-dimethyl-3-oxopropanoic acid]	59 nM	> 50000 nM
COC(=O)C1=C(CN2CC(F)(F)[C@@H]3CN(C(=O)C(C)(C)C(=O)O)C[C@@H]32)NC(c2nccs2)=N[C@H]1c1ccc(F)cc1Cl (single isomer, unassigned) [Compound 208, 3-((cis)-1-((6-(2-chloro-4-fluorophenyl)-5-(methoxycarbonyl)-2-(thiazol-2-yl)-3,6-dihydropyrimidin-4-yl)methyl)-3,3-difluorohexahydropyrrolo[3,4-b]pyrrol-5(1H)-yl)-2,2-dimethyl-3-oxopropanoic acid]	28.6 nM	> 100000 nM
